# Test results: patent US12516036B2, “Crystal form of 3-(4-(benzyloxy)phenyl)hex-4-inoic acid derivative” (HYUNDAI PHARM CO., LTD., priority 2019, dated 2026)
# What was measured:
# [1] = Thermal stability test (thermal stress, 80° C.); type: physicochemical; details: for Change in properties (appearance): 80° C.; for Purity (%) Initial: before thermal stress test; for Purity (%) Initial / Purity (%) Month 1 / Purity (%) Day 6 / Purity (%) Day 14: HPLC; for Purity change (%) Month 1 − Initial / Purity (%) Month 1 / Purity (%) Day 6 / Purity (%) Day 14: sealed vial, oven 80° C.; for Purity change (%) Month 1 − Initial: 1 month vs initial; for Purity (%) Month 1: 1 month; for Purity (%) Day 6: 6 days; for Purity (%) Day 14: 14 days; for Change in XRD pattern before and after thermal stress: 80° C. thermal stress (FIG. 11-14)
# Experimental: The crystal form I, crystal form II, and amorphous form samples of a compound of Chemical Formula 1 were subjected to a thermal stability test.
# 0.3 g of each sample was input into a 20 mL vial (prepared 0.3 g*3 ea for each sample), and the vial was sealed by closing a lid and then allowed to stand in an oven set at 80° C. Afterward, the sample was taken out after 6 days, 14 days, and 1 month had elapsed, and the changes in properties, purity, and XRD pattern before and after thermal stress conditions were examined. • Purity was measured under the following conditions using a HPLC. • Column: YMC-Pack Pro C18, 5 um, 4.6×150 mm • Column temperature: 35° C. • Flow rate: 1.0 mL/min • Injection volume: 5 uL • Wavelength: 220 nm • Mobile Phase A: 0.1% TFA in H2O/MeOH=60/40 • Mobile Phase B: MeOH/0.1% TFA in ACN=60/40 • Gradient:
# • Diluent: H2O/ACN=80/20 • Run time: 40 min • Sample concentration: 0.7 mg/mL
# [2] = Compressibility test (bulk/tapped density, Carr index, Hausner ratio); type: physicochemical; details: for Carr Index (CI): CI=100×(1−BD/TD); for Hausner ratio (Hr): Hr=TD/BD; for Description of flow: criteria of Table 5; for Bulk density BD / Tapped density TD: unit assumed
# Source text: Since a drug that causes a lot of static electricity has difficulty in handling and compressing to form a tablet when formulated, it is very difficult to implement a preparation with a uniform drug content. Accordingly, in relation to the static electricity-inducing capability and flowability of the three types of crystal form I, crystal form II, and the amorphous form, the compressibility of each preparation containing these drugs was examined.
# The Carr index is used as an indication of the compressibility of a preparation and is related to convenience in formulation, that is, static electricity-inducing capability, flowability, and uniformity of drug content.
# The Carr Index (CI) is calculated as follows. CI=100×(1−BD/TD) • BD: bulk density, TD: tapped density
# The Hausner ratio (Hr) is also an indication related to the flowability of a powder or granular drug.
# The Hausner ratio (Hr) is calculated as follows. Hr=TD/BD
# As a result of the test, the bulk density and tapped density of the crystal form I, the crystal form II, and the amorphous form were obtained and summarized in Table 4, through which the Carr Index (CI) and Hausner ratio (Hr) were obtained, and based on the criteria in Table 5, the evaluation results for the Carr Index (CI), Hausner ratio (Hr), and flowability are shown in Table 6.
# [3] = Storage stability test (formulated powder, 60° C. and 75% RH); type: physicochemical; details: for Purity (%) Initial: powder mix with microcrystalline cellulose and light anhydrous silicic acid; for Purity (%) Week 2 / Purity (%) Week 4 / Purity (%) Week 8 / Purity change (%) Week 8 − Initial: powder mix; for Purity (%) Week 2: 2 weeks; for Purity (%) Week 4: 4 weeks; for Purity (%) Week 8: 8 weeks; for Purity change (%) Week 8 − Initial: 8 weeks vs initial
# Experimental: In order to confirm stability when the crystal form I, crystal form II, and amorphous form of a compound of Chemical Formula 1 were formulated, powder obtained by mixing 50 mg of each sample, 149 mg of microcrystalline cellulose, and 1 mg of light anhydrous silicic acid was input into a brown glass bottle and allowed to stand in a stability chamber set under conditions of 60° C. and 75% RH, and the sample was taken out after 2 weeks, 4 weeks, 8 weeks had elapsed to confirm the purity of the compound of Chemical Formula 1 over time.
# When the storage period for each storage condition was reached, 35 mg of the compound of Chemical Formula 1 was taken from each sample, input into a 50 mL volumetric flask, dissolved with an appropriate amount of diluent, and marked. The resulting solution was input into a glass centrifuge tube and centrifuged at 3,000 rpm and 5° C. for 10 minutes. The sample was taken using a glass pipette and input into a HPLC vial for analysis.
# [4] = molecular target: free fatty acid receptor 1 (FFAR1)/a G-protein coupled receptor (GPR40) (Homo sapiens, UniProt O14842); details: cited from earlier work
# free fatty acid receptor 1 (FFAR1)/a G-protein coupled receptor (GPR40), sequence (O14842 whole entry, species assumed): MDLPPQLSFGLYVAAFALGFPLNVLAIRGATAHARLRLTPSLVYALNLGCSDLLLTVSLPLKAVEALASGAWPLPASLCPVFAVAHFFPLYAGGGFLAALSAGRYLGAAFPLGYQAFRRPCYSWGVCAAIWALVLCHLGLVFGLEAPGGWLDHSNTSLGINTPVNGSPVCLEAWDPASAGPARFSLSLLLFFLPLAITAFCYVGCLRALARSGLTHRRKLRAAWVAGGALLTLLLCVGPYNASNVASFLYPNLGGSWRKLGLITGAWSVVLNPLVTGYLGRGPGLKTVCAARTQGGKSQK
# [5] = in vivo; cited from earlier work
# [6] = after 1 month of the thermal stress test (FIG. 10)
Purity (%) Initial [1] [%],Purity change (%) Month 1 − Initial [1] [%],Purity (%) Month 1 [1] [%],Purity (%) Day 6 [1] [%],Purity (%) Day 14 [1] [%],Carr Index (CI) [2],Hausner ratio (Hr) [2],Description of flow [2],Bulk density BD [2] [g/mL],Tapped density TD [2] [g/mL],Purity (%) Initial [3] [%],Purity (%) Week 2 ([3]; 60° C. and 75% RH) [%],Purity (%) Week 4 ([3]; 60° C. and 75% RH) [%],Purity (%) Week 8 ([3]; 60° C. and 75% RH) [%],Purity change (%) Week 8 − Initial ([3]; 60° C. and 75% RH) [%],"Change in properties (appearance) [1, 6]",Structure (SMILES),Change in XRD pattern before and after thermal stress [1],also measured
99.33,−11.69,87.64,96.76,94.35,18.48,1.23,Fair (16-20),0.353,0.433,100.6,91.5,86.8,77.5,−23.1,,"CC#C[C@@H](CC(=O)O)c1ccc(OCc2cccc(C3=CCC4(CC3)OCCO4)c2)cc1 [Amorphous form, (3S)-3-(4-(3-(1,4-dioxaspiro[4,5]dec-7-en-8-yl)benzyloxy)phenyl)hex-4-inoic acid]",,Change in properties (appearance) ([1]; after 6 days of the thermal stress test (FIG. 10)): turned yellow
,,,,,,,,,,,,,,,,"CC#C[C@@H](CC(=O)O)c1ccc(OCc2cccc(C3=CCC4(CC3)OCCO4)c2)cc1 [compound of Chemical Formula 1, (3S)-3-(4-(3-(1,4-dioxaspiro[4,5]dec-7-en-8-yl)benzyloxy)phenyl)hex-4-inoic acid]",,Activation of FFAR1/GPR40 (increase of intracellular calcium concentration) [4]: activates; Blood sugar lowering effect [5]: excellent blood sugar lowering effect
99.53,−3.75,95.78,98.73,97.80,54.05,2.18,"Very, very poor",0.136,0.296,99.1,96.2,92.3,88,−11.1,no significant change in properties,"CC#C[C@@H](CC(=O)O)c1ccc(OCc2cccc(C3=CCC4(CC3)OCCO4)c2)cc1 [Crystal form II, (3S)-3-(4-(3-(1,4-dioxaspiro[4,5]dec-7-en-8-yl)benzyloxy)phenyl)hex-4-inoic acid]",shifting of specific peaks,Compressibility test results (in words) [2]: very poor; Static electricity-inducing capability ([2]; filling a die for tableting): excessively caused static electricity
99.40,−3.65,95.75,98.67,97.91,13.41,1.15,Good (11-15),0.381,0.44,100.2,101.8,100.9,99.9,−0.3,no significant change in properties,"CC#C[C@@H](CC(=O)O)c1ccc(OCc2cccc(C3=CCC4(CC3)OCCO4)c2)cc1 [Crystal form I, (3S)-3-(4-(3-(1,4-dioxaspiro[4,5]dec-7-en-8-yl)benzyloxy)phenyl)hex-4-inoic acid]",no significant change in XRD pattern peak,"Storage stability ranking ([3]; 60° C. and 75% RH, compared among crystal form I, crystal form II, amorphous form): stablest"
